The source made the active and inactive calls. The rule behind the calls is not given here.
Experiments:
[1] = Permeability of compound measured after 18 hrs by UV spectrophotometer based PAMPA; format: ADME
BV-2 [2] = assay: Antiinflammatory activity in LPS-induced mouse BV-2 cells assessed as inhibition of NO production incubated for 24 hrs by Griess reagent based analysis; format: functional, cell-based; conditions: BV-2, 24 h
[3] = Cytotoxicity against LPS-induced mouse BV-2 cells assessed as survival rate at 10 uM measured after 24 hrs by MTT assay relative to control; format: toxicity, cell-based; conditions: LPS-induced BV-2 cells, read-out: Survival
BV-2 [4] = assay: Activation of TGF-beta pathway in APP/PS1/tau mouse brain extract-induced mouse BV-2 cells assessed as increase in phosphorylated SMAD2/3 protein level by immunoblot analysis; format: cell-based; conditions: filed as activator
[5] = target: T1, Transforming growth factor beta receptor type 3 (Mus musculus) (UniProt O88393); assay: Binding affinity to sTGFBR3 in APP/PS1/tau mouse brain extract-induced mouse BV-2 cells at 37 to 77 degreeC measured after 3 hrs by CETSA; format: cell-based
T1 sequence (whole entry): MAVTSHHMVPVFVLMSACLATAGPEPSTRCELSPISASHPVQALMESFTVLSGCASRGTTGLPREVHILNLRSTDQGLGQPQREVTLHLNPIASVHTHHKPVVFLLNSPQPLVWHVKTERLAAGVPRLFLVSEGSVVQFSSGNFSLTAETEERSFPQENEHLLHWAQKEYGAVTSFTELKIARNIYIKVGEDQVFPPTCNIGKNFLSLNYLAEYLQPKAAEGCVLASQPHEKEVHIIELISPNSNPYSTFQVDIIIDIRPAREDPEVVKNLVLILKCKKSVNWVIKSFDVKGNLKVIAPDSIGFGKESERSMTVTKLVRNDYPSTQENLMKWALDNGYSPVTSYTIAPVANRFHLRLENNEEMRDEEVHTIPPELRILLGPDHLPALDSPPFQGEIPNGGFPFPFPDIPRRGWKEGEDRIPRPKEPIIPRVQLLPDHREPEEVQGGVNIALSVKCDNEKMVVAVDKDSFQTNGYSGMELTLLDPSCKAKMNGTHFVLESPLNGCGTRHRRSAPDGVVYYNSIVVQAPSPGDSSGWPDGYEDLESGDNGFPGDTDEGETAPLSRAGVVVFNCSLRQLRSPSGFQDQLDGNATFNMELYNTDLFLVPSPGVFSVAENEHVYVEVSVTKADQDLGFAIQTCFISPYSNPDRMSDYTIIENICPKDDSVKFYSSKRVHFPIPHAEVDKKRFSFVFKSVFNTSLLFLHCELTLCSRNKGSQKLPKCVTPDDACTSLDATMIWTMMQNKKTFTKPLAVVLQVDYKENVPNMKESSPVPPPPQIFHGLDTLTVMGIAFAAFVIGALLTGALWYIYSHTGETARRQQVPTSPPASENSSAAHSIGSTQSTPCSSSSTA

BV-2 [6] = assay: Inhibition of NF-kappaB activation in APP/PS1/tau triple transgenic mouse brain extract-induced mouse BV-2 cells assessed as reduction in IKK complex formation by immunoblot analysis; format: cell-based; conditions: dose 1.25-10 µM
BV-2 [7] = assay: Activation of TGF-beta pathway in APP/PS1/tau triple transgenic mouse brain extract-induced mouse BV-2 cells assessed as increase in phosphorylated SMAD2/3 protein expression by immunoblot analysis; format: cell-based; conditions: filed as activator, dose 1.25-10 µM
BV-2 [8] = assay: Inhibition of NF-kappaB activation in APP/PS1/tau triple transgenic mouse brain extract-induced mouse BV-2 cells assessed as inhibition of phosphorylated IKBalpha protein expression by immunoblot analysis; format: cell-based; conditions: dose 1.25-10 µM
BV-2 [9] = assay: Inhibition of NF-kappaB activation in APP/PS1/tau triple transgenic mouse brain extract-induced mouse BV-2 cells assessed as inhibition of phosphorylated p65 protein expression by immunoblot analysis; format: cell-based; conditions: dose 1.25-10 µM
BV-2 [10] = assay: Antiinflammatory activity in APP/PS1/tau triple transgenic mouse brain extract-induced mouse BV-2 cells assessed as reduction in IL-1beta expression by immunoblot analysis; format: functional, cell-based; conditions: dose 1.25-10 µM
BV-2 [11] = assay: Antiinflammatory activity in APP/PS1/tau triple transgenic mouse brain extract-induced mouse BV-2 cells assessed as reduction in TNFalpha expression by immunoblot analysis; format: functional, cell-based; conditions: dose 1.25-10 µM
BV-2 [12] = assay: Antiinflammatory activity in APP/PS1/tau triple transgenic mouse brain extract-induced mouse BV-2 cells assessed as increase in IL-4 expression by immunoblot analysis; format: functional, cell-based; conditions: dose 1.25-10 µM
BV-2 [13] = assay: Antiinflammatory activity in APP/PS1/tau triple transgenic mouse brain extract-induced mouse BV-2 cells assessed as increase in IL-10 expression by immunoblot analysis; format: functional, cell-based; conditions: dose 1.25-10 µM
BV-2 [14] = assay: Antiinflammatory activity in APP/PS1/tau triple transgenic mouse brain extract-induced mouse BV-2 cells assessed as reduction in CD86 expression by immunoblot analysis; format: functional, cell-based; conditions: dose 1.25-10 µM
BV-2 [15] = assay: Antiinflammatory activity in APP/PS1/tau triple transgenic mouse brain extract-induced mouse BV-2 cells assessed as increase in CD206 expression by immunoblot analysis; format: functional, cell-based; conditions: dose 1.25-10 µM
BV-2 [16] = assay: Enhancement of amyloid beta phagocytosis in APP/PS1/tau triple transgenic mouse brain extract-induced mouse BV-2 cells assessed as increase in fluorescence intensity pretreated for 1 hr followed by brain extract treatment and measured after 24 hrs by Thioflavin T staining based assay; format: functional, cell-based; conditions: dose 1.25-10 µM, time 25.0 hrs
[17] = Toxicity in C57BL/6 mouse assessed as mortality at 2000 mg/kg, po measured after 3 to 24 hrs; format: organism-based; conditions: in vivo, time 3-24 hrs
[18] = Cmax in Sprague-Dawley rat at 50 mg/kg, po administered as single dose and measured upto 48 hrs; format: ADME, organism-based; conditions: in vivo
[19] = AUC (0 to t) in Sprague-Dawley rat at 50 mg/kg, po administered as single dose and measured upto 48 hrs; format: ADME, organism-based; conditions: in vivo
[20] = Elimination half life in Sprague-Dawley rat at 50 mg/kg, po administered as single dose and measured upto 48 hrs; format: ADME, organism-based; conditions: in vivo, read-out: beta t1/2 (converted)
[21] = Tmax in Sprague-Dawley rat at 50 mg/kg, po administered as single dose and measured upto 48 hrs; format: ADME, organism-based; conditions: in vivo
[22] = MRT (0 to infinity) in Sprague-Dawley rat at 50 mg/kg, po administered as single dose and measured upto 48 hrs; format: ADME, organism-based; conditions: in vivo

Compound | IC50 (BV-2 [2]) | viability at 24 h, 10 µM [3] | other results
CCn1cc(C(=O)O)c(=O)c2cc(F)c(N3CCNCC3)nc21 [ENOXACIN] |  |  | permeability [1]: 43.26%
O=c1c2ccccc2oc2ccccc12 [XANTHONE] | 21200 nM | 95.4% | 
O=C(COc1ccc2c(=O)c3ccccc3oc2c1)NC[C@@H](O)c1ccccc1 | 12500 nM | 100% | 
O=C(COc1ccc2c(=O)c3ccccc3oc2c1)N(Cc1ccccc1)Cc1ccccc1 | 6380 nM | 99.7% | 
O=C(COc1ccc2c(=O)c3ccccc3oc2c1)NCCc1ccc(Cl)c(Cl)c1 | 3280 nM | 41.1% | 
O=C(COc1ccc2c(=O)c3ccccc3oc2c1)NCc1cccc(F)c1 | > 30000 nM | 97.2% | 
O=C(COc1ccc2c(=O)c3ccccc3oc2c1)N1CCNCC1 | 2150 nM | 101% | Activity (BV-2 [4]): Active; Activity [5]: inactive
O=C(COc1ccc2c(=O)c3ccccc3oc2c1)Nc1ccccn1 | > 30000 nM | 87.4% | 
O=C(COc1ccc2c(=O)c3ccccc3oc2c1)NCc1ccc(F)cc1 | 2020 nM | 82.8% | 
O=C(COc1ccc2c(=O)c3ccccc3oc2c1)Nc1ccncc1 | 2790 nM | 108% | 
O=C(COc1ccc2c(=O)c3ccccc3oc2c1)Nc1cccnc1 | 1920 nM | 91.9% | 
Cc1ccc(CCNC(=O)COc2ccc3c(=O)c4ccccc4oc3c2)cc1 | 3420 nM | 47.9% | 
CN1CCN(c2ccc(NC(=O)COc3ccc4c(=O)c5ccccc5oc4c3)nc2)CC1 | 1190 nM | 86% | 
COc1ccc(CCNC(=O)COc2ccc3c(=O)c4ccccc4oc3c2)cc1 | 860 nM | 54.4% | 
O=C(COc1ccc2c(=O)c3ccccc3oc2c1)NCc1ccc(Cl)cc1 | 1230 nM | 40.4% | 
O=C(COc1ccc2c(=O)c3ccccc3oc2c1)NCCc1ccccc1 | 2570 nM | 96.4% | 
O=C(COc1ccc2c(=O)c3ccccc3oc2c1)NCc1ccncc1 | 6380 nM | 102% | 
O=C(COc1ccc2c(=O)c3ccccc3oc2c1)NCC1CCOCC1 | 520 nM | 105% | inhibition (BV-2 [6]): Dose-Dependent Effect; Activity (BV-2 [4]): Active; Activity ([5]; filed as antagonist): Active; permeability [1]: 79.33%; Activity (BV-2 [7]): Dose-Dependent Effect; inhibition (BV-2 [8]): Dose-Dependent Effect; inhibition (BV-2 [9]): Dose-Dependent Effect; Activity (BV-2 [10]): Dose-Dependent Effect; Activity (BV-2 [11]): Dose-Dependent Effect; Activity (BV-2 [12]): Dose-Dependent Effect; Activity (BV-2 [13]): Dose-Dependent Effect; Activity (BV-2 [14]): Dose-Dependent Effect; Activity (BV-2 [15]): Dose-Dependent Effect; Activity (BV-2 [16]): Dose-Dependent Effect; Activity [17]: Non-Toxic; Cmax [18]: 304 ng/mL; AUCt [19]: 4738.426 ng·h/mL; half-life [20]: 10.3 h; Tmax [21]: 12 h; MRT inf [22]: 14.5 h
C[C@]12CCC(=O)C=C1CC[C@@H]1[C@@H]2CC[C@]2(C)C(=O)CC[C@@H]12 [ANDROSTENEDIONE] |  |  | permeability [1]: 87.28%
CN1CCN(C(=O)COc2ccc3c(=O)c4ccccc4oc3c2)CC1 | 2250 nM | 91.6% | 
O=C(COc1ccc2c(=O)c3ccccc3oc2c1)NC1CCOCC1 | 3900 nM | 80.6% | 
O=C(COc1ccc2c(=O)c3ccccc3oc2c1)NCc1ccc(Cl)c(Cl)c1 | 2890 nM | 54.6% | 
O=C(COc1ccc2c(=O)c3ccccc3oc2c1)NCc1cccnc1 | 16000 nM | 75.4% | 
O=C(COc1ccc2c(=O)c3ccccc3oc2c1)N1CCOCC1 | 2490 nM | 108% | Activity (BV-2 [4]): Active; Activity ([5]; filed as antagonist): Active
CCC(NC(=O)COc1ccc2c(=O)c3ccccc3oc2c1)c1ccccn1 (stereo not given) | 5430 nM | 98.5% | 
O=C(COc1ccc2c(=O)c3ccccc3oc2c1)NCCc1ccc(Cl)cc1 | 1530 nM | 38.5% | 
O=C(COc1ccc2c(=O)c3ccccc3oc2c1)NCc1ccccc1F | 1720 nM | 84.6% | 
O=C(COc1ccc2c(=O)c3ccccc3oc2c1)NCc1ccccc1 | 2410 nM | 79% | 
O=C(COc1ccc2c(=O)c3ccccc3oc2c1)NCc1ccccn1 | 2430 nM | 69.1% | 

— ChEMBL document CHEMBL5608216, “Discovery of a novel Xanthone derivative P24 for anti-AD via targeting sTGFBR3” (Eur J Med Chem, 2024)
